Among the data in patent US9206200B2, “N-linked lactam M1 receptor positive allosteric mogulators” (Merck Sharp & Dohme Corp., priority 2011, dated 2015) are EC50 values, retold here.

The first experiment addresses T1, acetylcholine muscarinic M1 receptor (Homo sapiens, UniProt P11229).
T1 construct: expressed in transfected cells; host or cells: CHOnfat cells (CHO cells with an NFAT reporter) expressing hM1, kept under Geneticin selection
T1 sequence (P11229 1-460): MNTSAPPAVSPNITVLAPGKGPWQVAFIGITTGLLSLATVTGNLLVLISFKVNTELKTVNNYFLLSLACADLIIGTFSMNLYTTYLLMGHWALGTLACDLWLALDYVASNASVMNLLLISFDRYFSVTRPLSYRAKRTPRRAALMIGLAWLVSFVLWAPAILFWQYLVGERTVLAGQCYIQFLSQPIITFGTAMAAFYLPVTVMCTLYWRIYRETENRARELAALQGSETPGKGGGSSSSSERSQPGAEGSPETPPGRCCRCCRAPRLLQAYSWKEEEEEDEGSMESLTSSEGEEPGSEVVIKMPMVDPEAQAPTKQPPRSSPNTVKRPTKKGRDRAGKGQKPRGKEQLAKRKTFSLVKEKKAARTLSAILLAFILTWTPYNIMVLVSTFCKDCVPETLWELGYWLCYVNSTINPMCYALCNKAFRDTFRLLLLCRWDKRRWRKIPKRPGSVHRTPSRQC
The experiment can be described thus: muscarinic FLIPR assay: intracellular calcium in CHOnfat/hM1 cells, potentiation of EC20 acetylcholine. It is filed as cell-based. Conditions: Table 1; CHOnfat/hM1 cells, FLIPR, EC20 acetylcholine (3 nM final); read-out: M1 Pot. An outline of the steps:
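CHOnfat cells stably expressing human M1, Fluo-4AM-loaded, in HBSS with 20 mM HEPES, 2.5 mM probenecid, 1% BSA. Compounds preincubated 4 min (printed "4 mM") before an EC20 acetylcholine challenge (3 nM final). FLIPR intracellular Ca²⁺ signal compared with 3 nM acetylcholine alone to detect potentiation.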
For orientation: A change in cytosolic calcium serves as a functional read-out for many receptors and channels.
With `CC1c2c(cc(CN3CCC(C#N)(c4ccccn4)CC3)c3ccccc23)C(=O)N1[C@H]1CCCC[C@@H]1O` (single isomer, unassigned) [Example 45], the EC50 was 272 nM.

`N#CC1(c2ccccn2)CCN(Cc2cc3c(c4ccccc24)CN(C2CCCOC2)C3=O)CC1` (stereo not drawn) [Example 55, 1-{[3-oxo-2-(tetrahydro-2H-pyran-3-yl)-2,3-dihydro-1H-benzo[e]isoindol-5-yl]methyl}-4-pyridin-2-ylpiperidine-4-carbonitrile]: the EC50 is 1500 nM.

As to `N#CC1(c2cnccn2)CCN(Cc2cc3c(c4ccccc24)CN([C@H]2CCCC[C@@H]2O)C3=O)CC1` [Example 50, 1-({2-[(1S,2S)-2-hydroxycyclohexyl]-3-oxo-2,3-dihydro-1H-benzo[e]isoindol-5-yl}methyl)-4-(pyrazin-2-yl)piperidine-4-carbonitrile], the EC50 was 31 nM.

On to `Cc1ccccc1C1(C#N)CCN(Cc2cc3c(c4ccccc24)CN([C@@H]2CCCC[C@@H]2O)C3=O)CC1` [Example 61, 1-({2-[(1R,2S)-2-hydroxycyclohexyl]-3-oxo-2,3-dihydro-1H-benzo[e]isoindol-5-yl}methyl)-4-(2-methylphenyl)piperidine-4-carbonitrile], for which the EC50 is 107 nM.

On to `CN1CCN(Cc2cc3c(c4ccccc24)CN([C@H]2CCCC[C@@H]2O)C3=O)CC1=O` [Example 13, 2-[(1S,2S)-2-hydroxycyclohexyl]-5-[(4-methyl-3-oxopiperazin-1-yl)methyl]-1,2-dihydro-3H-benzo[e]isoindol-3-one], for which the EC50 is 560 nM.

Consider `CC1CCCN(Cc2cc3c(c4ccccc24)CN(C2CCCCC2O)C3=O)C1` (stereo not drawn) [Example 16, 2-(2-hydroxycyclohexyl)-5-[(3-methylpiperidin-1-yl)methyl]-1,2-dihydro-3H-benzo[e]isoindol-3-one], for which the EC50 turned out to be 7800 nM.

For the compound `CS(=O)(=O)N1CCN(Cc2cc3c(c4ccccc24)CN(C2CCCCC2O)C3=O)CC1` (stereo not drawn) [Example 15, 2-(2-hydroxycyclohexyl)-5-{[4-(methylsulfonyl)piperazin-1-yl]methyl}-1,2-dihydro-3H-benzo[e]isoindol-3-one], the EC50 turned out to be 720 nM.

As to `CS(=O)(=O)c1ccc(N2CCN(Cc3cc4c(c5ccccc35)CN([C@H]3CCCC[C@@H]3O)C4=O)CC2)cc1` [Example 68, 2-[(1S,2S)-2-hydroxycyclohexyl]-5-({4-[4-(methylsulfonyl)phenyl]piperazin-1-yl}methyl)-1,2-dihydro-3H-benzo[e]isoindol-3-one], the EC50 worked out at 47 nM.

On to `O=C1c2cc(CN3CCc4ccccc4C3c3ccncc3)c3ccccc3c2CN1c1ccccc1F` (stereo not drawn) [Example 65, 2-(2-fluorophenyl)-5-{[1-(pyridin-4-yl)-3,4-dihydroisoquinolin-2(1H)-yl]methyl}-1,2-dihydro-3H-benzo[e]isoindol-3-one], for which the EC50 turned out to be 1370 nM.

Regarding `COc1ccc(N2CCN(Cc3cc4c(c5ccccc35)CN([C@H]3CCCC[C@@H]3O)C4=O)CC2)cc1` [Example 69, 2-[(1S,2S)-2-hydroxycyclohexyl]-5-{[4-(4-methoxyphenyl)piperazin-1-yl]methyl}-1,2-dihydro-3H-benzo[e]isoindol-3-one], the EC50 came out at 49 nM.

Take `CC1CN(Cc2cc3c(c4ccccc24)CN([C@H]2CCCC[C@@H]2O)C3=O)CCN1c1ccccc1` (stereo partly drawn) [Example 78, 2-[(1S,2S)-2-hydroxycyclohexyl]-5-[(3-methyl-4-phenylpiperazin-1-yl)methyl]-1,2-dihydro-3H-benzo[e]isoindol-3-one]: the EC50 was 370 nM.

With `O=C1c2cc(CN3CCC(O)CC3)c3ccccc3c2CN1C1CCCCC1O` (stereo not drawn) [Example 22, 2-(2-hydroxycyclohexyl)-5-[(4-hydroxypiperidin-1-yl)methyl]-1,2-dihydro-3H-benzo[e]isoindol-3-one], the EC50 came out at 480 nM.

On to `O=C1c2cc(CN3CCC(C4CC4)CC3)c3ccccc3c2CN1C1CCCCC1O` (stereo not drawn) [Example 39, 5-[(4-cyclopropylpiperidin-1-yl)methyl]-2-(2-hydroxycyclohexyl)-1,2-dihydro-3H-benzo[e]isoindol-3-one], for which the EC50 was determined as 5300 nM.

`CN1CCN(Cc2cc3c(c4ccccc24)CN([C@H]2CCCC[C@@H]2O)C3=O)CC1` [Example 12, 2-[(1S,2S)-2-hydroxycyclohexyl]-5-[(4-methylpiperazin-1-yl)methyl]-1,2-dihydro-3H-benzo[e]isoindol-3-one]: the EC50 amounted to 1300 nM.

The same experiment, now with this note: Table 2; CHOnfat/hM1 cells, FLIPR, EC20 acetylcholine (3 nM final); read-out: M1 Pot.
Regarding `N#CC1CCN(Cc2cc3c(c4ncccc24)CN([C@H]2CCCC[C@@H]2O)C3=O)CC1` [Example 92, 1-({8-[(1S,2S)-2-hydroxycyclohexyl]-7-oxo-8,9-dihydro-7H-pyrrolo[3,4-h]quinolin-5-yl}methyl)piperidine-4-carbonitrile], the EC50 was 72 nM.

As for `C#CC1(F)CCN(Cc2cc3c(c4ncccc24)CN([C@H]2CCCC[C@@H]2O)C3=O)CC1` [Example 103, 5-[(4-ethynyl-4-fluoropiperidin-1-yl)methyl]-8-[(1S,2S)-2-hydroxycyclohexyl]-8,9-dihydro-7H-pyrrolo[3,4-h]quinolin-7-one], the EC50 stood at 11 nM.

`O=C1c2cc(CN3CCC(F)(F)CC3)c3cccnc3c2CN1C1CCCCC1O` (stereo not drawn) [Example 116, 5-[(4,4-difluoropiperidin-1-yl)methyl]-8-(2-hydroxycyclohexyl)-8,9-dihydro-7H-pyrrolo[3,4-h]quinolin-7-one]: the EC50 stood at 21 nM.

On to `CC1c2c(cc(CN3CCN(c4ccccc4)CC3)c3cccnc23)C(=O)N1C1CCCCC1O` (stereo not drawn) [Example 175, 8-(2-hydroxycyclohexyl)-9-methyl-5-[(4-phenylpiperazin-1-yl)methyl]-8,9-dihydro-7H-pyrrolo[3,4-h]quinolin-7-one], for which the EC50 turned out to be 490 nM.

Regarding `O=C1c2cc(CN3CCC(F)(C#Cc4ccc(F)cc4)CC3)c3cccnc3c2CN1C1CCCCC1O` (stereo not drawn) [Example 133, 5-({4-fluoro-4-[(4-fluorophenyl)ethynyl]piperidin-1-yl}methyl)-8-(2-hydroxycyclohexyl)-8,9-dihydro-7H-pyrrolo[3,4-h]quinolin-7-one], the EC50 came out at 129 nM.

On to `O=C1c2cc(CN3CCC(c4ccccc4)CC3)c3cccnc3c2CN1C1CCCCC1O` (stereo not drawn) [Example 139, 8-(2-hydroxycyclohexyl)-5-[(4-phenylpiperidin-1-yl)methyl]-8,9-dihydro-7H-pyrrolo[3,4-h]quinolin-7-one], for which the EC50 was found to be 85 nM.

Regarding `CC1c2c(cc(CN3CCN(c4cnn(C)c4)CC3)c3cccnc23)C(=O)N1C1CCCCC1O` (stereo not drawn) [Example 158, 8-(2-hydroxycyclohexyl)-9-methyl-5-{[4-(1-methyl-1H-pyrazol-4-yl)piperazin-1-yl]methyl}-8,9-dihydro-7H-pyrrolo[3,4-h]quinolin-7-one], the EC50 was determined as 70 nM.

As for `CC1c2c(cc(CN3CCC(F)(c4ccccn4)CC3)c3cccnc23)C(=O)N1[C@@H]1CCCC[C@@H]1O` (stereo partly drawn) [Example 147, 5-[(4-fluoro-4-pyridin-2-ylpiperidin-1-yl)methyl]-8-[(1R,2S)-2-hydroxycyclohexyl]-9-methyl-8,9-dihydro-7H-pyrrolo[3,4-h]quinolin-7-one], the EC50 was determined as 70 nM.

Turning to `CC#CC1(F)CCN(Cc2cc3c(c4ncccc24)CN([C@H]2CCCC[C@@H]2O)C3=O)CC1` [Example 131, 5-[(4-fluoro-4-prop-1-yn-1-ylpiperidin-1-yl)methyl]-8-[(1S,2S)-2-hydroxycyclohexyl]-8,9-dihydro-7H-pyrrolo[3,4-h]quinolin-7-one], the EC50 worked out at 33 nM.

Take `O=C1c2cc(CN3CCN(c4ccc(F)cc4)CC3)c3cccnc3c2CN1C1CCCCC1O` (stereo not drawn) [Example 171, 5-{[4-(4-fluorophenyl)piperazin-1-yl]methyl}-8-(2-hydroxycyclohexyl)-8,9-dihydro-7H-pyrrolo[3,4-h]quinolin-7-one]: the EC50 is 23 nM.

Regarding `CC1c2c(cc(CN3CCN(c4ccc(F)cc4)CC3)c3cccnc23)C(=O)N1C1CCCCC1O` (stereo not drawn) [Example 173, 5-{[4-(4-fluorophenyl)piperazin-1-yl]methyl}-8-(2-hydroxycyclohexyl)-9-methyl-8,9-dihydro-7H-pyrrolo[3,4-h]quinolin-7-one], the EC50 was determined as 100 nM.

Staying with this experiment, now noted: Table 3; inflection point calculated from the FLIPR values; EC20 acetylcholine (3 nM final); read-out: IP Value.
As to `C=CC1(F)CCN(Cc2cc3c(c4ncccc24)CN([C@H]2CCCC[C@@H]2O)C3=O)CC1` [Example 9, 5-[(4-Ethenyl-4-fluoropiperidin-1-yl)methyl]-8-[(1S,2S)-2-hydroxycyclohexyl]-8,9-dihydro-7H-pyrrolo[3,4-h]quinolin-7-one], the EC50 was 420 nM.

`O=C1c2cc(CN3CCC(F)(F)CC3)c3cccnc3c2CN1[C@H]1CCOC[C@@H]1O` [Example 7, 1,5-Anhydro-2,3-dideoxy-3-{5-[(4,4-difluoropiperidin-1-yl)methyl]-7-oxo-7,9-dihydro-8H-pyrrolo[3,4-h]quinolin-8-yl}-L-threo-pentitol]: the EC50 is 147 nM.
